In ChEMBL document CHEMBL3045288, “Pharmacophore of neonicotinoid insecticides” (J Pestic Sci, 2008):

Tested on: Spodoptera litura
Experiment: Insecticidal activity against Spodoptera litura at 500 ppm
Assay type: functional
Details: not given
`O=[N+]([O-])/N=C1\N(CCCF)CCN1Cc1ccc(Cl)nc1` showed an Activity of 0%.
`O=[N+]([O-])/N=C1\NCCN1CCC(F)(F)F` gave an Activity of 30%.
`O=[N+]([O-])/N=C1\NCCN1CCCCF` gave an Activity of 20%.
Work on `O=[N+]([O-])/N=C1\NCCN1CCC(F)=C(F)F` yielded an Activity of 0%.
Compound `O=[N+]([O-])/N=C1\NCCN1CCCCl` has an Activity of 0%.
`O=[N+]([O-])/N=C1\NCCN1CCCF` gave an Activity of 100%.
With `O=[N+]([O-])/N=C1\NCCN1CCF` the Activity was 0%.
Work on `O=[N+]([O-])/N=C1\NCCN1Cc1ccc(Cl)nc1` [IMIDACLOPRID] yielded an Activity of 100%.
In the case of `CCCN1CCN/C1=N\[N+](=O)[O-]`, the Activity is reported as 0%.

Tested on: Aulacophora
Experiment: Insecticidal activity against Aulacophora femoralis (cucurbit leaf beetle) at 500 ppm
Assay type: functional
Details: not given
With `O=[N+]([O-])/N=C1\NCCN1CCC(F)(F)F` the Activity was 100%.
Compound `O=[N+]([O-])/N=C1\NCCN1CCC(F)=C(F)F` has an Activity of 0%.
With `O=[N+]([O-])/N=C1\NCCN1CCCCl` the Activity was 100%.
`O=[N+]([O-])/N=C1\NCCN1CCCF` gave an Activity of 100%.
Compound `O=[N+]([O-])/N=C1\NCCN1CCF` has an Activity of 0%.
`O=[N+]([O-])/N=C1\NCCN1Cc1ccc(Cl)nc1` [IMIDACLOPRID] showed an Activity of 100%.
In the case of `CCCN1CCN/C1=N\[N+](=O)[O-]`, the Activity is reported as 0%.

Tested on: Periplaneta americana
Experiment: Insecticidal activity against Periplaneta americana (American cockroach) central nerve cord
Assay type: functional
Details: not given
With `O=[N+]([O-])/N=C1/N(CCCCN2CCN(Cc3ccc(Cl)nc3)/C2=N/[N+](=O)[O-])CCN1Cc1ccc(Cl)nc1` the Activity was 11 nmol.
Compound `O=[N+]([O-])/N=C1/N(CCCCCCN2CCN(Cc3ccc(Cl)nc3)/C2=N/[N+](=O)[O-])CCN1Cc1ccc(Cl)nc1` [Hexamethylene 1,6-bis-imadacloprid] has an Activity of 2.2 nmol.
With `O=[N+]([O-])/N=C1\N(CCN2CCN(Cc3ccc(Cl)nc3)/C2=N\[N+](=O)[O-])CCN1Cc1ccc(Cl)nc1` the Activity was 8.3 nmol.
For `O=[N+]([O-])/N=C1/N(CCCCCN2CCN(Cc3ccc(Cl)nc3)/C2=N/[N+](=O)[O-])CCN1Cc1ccc(Cl)nc1`, the Activity was 3.9 nmol.
Compound `O=[N+]([O-])/N=C1/N(CCCCCCCN2CCN(Cc3ccc(Cl)nc3)/C2=N/[N+](=O)[O-])CCN1Cc1ccc(Cl)nc1` [Heptamethylene 1,7-bis-imadacloprid] has an Activity of 2.8 nmol.
`O=[N+]([O-])/N=C1/N(CCCCCCCCCN2CCN(Cc3ccc(Cl)nc3)/C2=N/[N+](=O)[O-])CCN1Cc1ccc(Cl)nc1` showed an Activity of 2.8 nmol.
`O=[N+]([O-])/N=C1/N(CCCCCCCCCCN2CCN(Cc3ccc(Cl)nc3)/C2=N/[N+](=O)[O-])CCN1Cc1ccc(Cl)nc1` gave an Activity of 3.7 nmol.
`O=[N+]([O-])/N=C1\NCCN1Cc1ccc(Cl)nc1` [IMIDACLOPRID] showed an Activity of 2.5 nmol.
Work on `O=[N+]([O-])/N=C1/N(CCCN2CCN(Cc3ccc(Cl)nc3)/C2=N/[N+](=O)[O-])CCN1Cc1ccc(Cl)nc1` yielded an Activity of 4.9 nmol.
Work on `O=[N+]([O-])/N=C1/N(CCCCCCCCN2CCN(Cc3ccc(Cl)nc3)/C2=N/[N+](=O)[O-])CCN1Cc1ccc(Cl)nc1` yielded an Activity of 4.5 nmol.

Tested on: Aulacophora
Experiment: Insecticidal activity against Aulacophora femoralis (cucurbit leaf beetle) at 20 ppm
Assay type: functional
Details: not given
In the case of `O=[N+]([O-])/N=C1\N(CCCF)CCN1Cc1ccc(Cl)nc1`, the Activity is reported as 100%.
Work on `O=[N+]([O-])/N=C1\NCCN1CCCCl` yielded an Activity of 50%.
With `O=[N+]([O-])/N=C1\NCCN1CCCF` the Activity was 0%.
`O=[N+]([O-])/N=C1\NCCN1Cc1ccc(Cl)nc1` [IMIDACLOPRID] showed an Activity of 100%.

Tested on: Myzus persicae
Experiment: Insecticidal activity against Myzus persicae (green peach aphid) at 500 ppm
Assay type: functional
Details: not given
Work on `O=[N+]([O-])/N=C1\NCCN1CCC(F)(F)F` yielded an Activity of 0%.
Work on `O=[N+]([O-])/N=C1\NCCN1CCCCF` yielded an Activity of 97%.
Work on `O=[N+]([O-])/N=C1\NCCN1CCC(F)=C(F)F` yielded an Activity of 0%.
With `O=[N+]([O-])/N=C1\NCCN1CCCCl` the Activity was 97%.
`O=[N+]([O-])/N=C1\NCCN1CCCF` showed an Activity of 97%.
`O=[N+]([O-])/N=C1\NCCN1CCF` gave an Activity of 60%.
For `O=[N+]([O-])/N=C1\NCCN1Cc1ccc(Cl)nc1` [IMIDACLOPRID], the Activity was 100%.
`CCCN1CCN/C1=N\[N+](=O)[O-]` gave an Activity of 60%.

Tested on: Myzus persicae
Experiment: Insecticidal activity against Myzus persicae (green peach aphid) at 100 ppm
Assay type: functional
Details: not given
Work on `O=[N+]([O-])/N=C1\N(CCCF)CCN1Cc1ccc(Cl)nc1` yielded an Activity of 100%.
`O=[N+]([O-])/N=C1\NCCN1CCCCF` gave an Activity of 60%.
`O=[N+]([O-])/N=C1\NCCN1CCCCl` showed an Activity of 0%.
Compound `O=[N+]([O-])/N=C1\NCCN1CCCF` has an Activity of 90%.
`O=[N+]([O-])/N=C1\NCCN1Cc1ccc(Cl)nc1` [IMIDACLOPRID] gave an Activity of 100%.

Tested on: Spodoptera litura
Experiment: Insecticidal activity against Spodoptera litura at 20 ppm
Assay type: functional
Details: not given
`O=[N+]([O-])/N=C1\NCCN1Cc1ccc(Cl)nc1` [IMIDACLOPRID] showed an Activity of 40%.

Tested on: Myzus persicae
Experiment: Insecticidal activity against Myzus persicae (green peach aphid) at 20 ppm
Assay type: functional
Details: not given
In the case of `O=[N+]([O-])/N=C1\N(CCCF)CCN1Cc1ccc(Cl)nc1`, the Activity is reported as 100%.
`O=[N+]([O-])/N=C1\NCCN1CCCCF` showed an Activity of 0%.
`O=[N+]([O-])/N=C1\NCCN1CCCF` gave an Activity of 60%.
With `O=[N+]([O-])/N=C1\NCCN1Cc1ccc(Cl)nc1` [IMIDACLOPRID] the Activity was 100%.

Tested on: Spodoptera litura
Experiment: Insecticidal activity against Spodoptera litura at 100 ppm
Assay type: functional
Details: not given
`O=[N+]([O-])/N=C1\NCCN1CCCCF` gave an Activity of 0%.
With `O=[N+]([O-])/N=C1\NCCN1CCCF` the Activity was 20%.
In the case of `O=[N+]([O-])/N=C1\NCCN1Cc1ccc(Cl)nc1` [IMIDACLOPRID], the Activity is reported as 80%.

Tested on: Aulacophora
Experiment: Insecticidal activity against Aulacophora femoralis (cucurbit leaf beetle) at 100 ppm
Assay type: functional
Details: not given
With `O=[N+]([O-])/N=C1\N(CCCF)CCN1Cc1ccc(Cl)nc1` the Activity was 100%.
In the case of `O=[N+]([O-])/N=C1\NCCN1CCC(F)(F)F`, the Activity is reported as 50%.
`O=[N+]([O-])/N=C1\NCCN1CCCCl` gave an Activity of 100%.
For `O=[N+]([O-])/N=C1\NCCN1CCCF`, the Activity was 100%.
Compound `O=[N+]([O-])/N=C1\NCCN1Cc1ccc(Cl)nc1` [IMIDACLOPRID] has an Activity of 100%.

Tested on: not listed separately
Experiment: Lipophilicity, log P of the compound
Assay type: physicochemical
Details: octanol/water
`O=[N+]([O-])/C=C1\CCCN1Cc1cnc(Cl)s1` gave a logP of 0.64.

Tested on: Periplaneta americana
Experiment: Neuroblocking potency in Periplaneta americana (American cockroach) central nerve cord
Assay type: functional
Details: not given
For `O=[N+]([O-])/N=c1\sccn1Cc1cnc(Cl)s1`, the “log(1/BC)” value was 5.79.
With `O=[N+]([O-])/C=C1\SCCN1Cc1ccc(Cl)nc1` the “log(1/BC)” value was 6.19.
With `O=[N+]([O-])/N=c1\ccccn1Cc1ccc(Cl)nc1` the “log(1/BC)” value was 5.09.
For `CN1CCN(Cc2ccc(Cl)nc2)/C1=C/[N+](=O)[O-]`, the “log(1/BC)” value was 3.84.
For `O=[N+]([O-])/N=c1\sccn1Cc1ccc(Cl)nc1`, the “log(1/BC)” value was 5.68.
For `O=[N+]([O-])/N=C1\SCCN1Cc1cnc(Cl)s1`, the “log(1/BC)” value was 6.31.
For `O=[N+]([O-])/C=C1\CCCN1Cc1ccc(Cl)nc1`, the “log(1/BC)” value was 6.43.
With `O=[N+]([O-])/C=C1\CCCN1Cc1cnc(Cl)s1` the “log(1/BC)” value was 6.
For `O=[N+]([O-])/N=C1\NCCN1Cc1cnc(Cl)s1` [IMIDACLOTHIZ], the “log(1/BC)” value was 5.97.
In the case of `O=[N+]([O-])Nc1nccn1Cc1ccc(Cl)nc1` [DEHYDROIMIDACLOPRID], the “log(1/BC)” value is reported as 4.31.
For `O=[N+]([O-])/C=C1\NCCN1Cc1ccc(Cl)nc1`, the “log(1/BC)” value was 5.02.
For `O=[N+]([O-])/N=C1\NCCN1Cc1ccc(Cl)nc1` [IMIDACLOPRID], the “log(1/BC)” value was 5.64.
With `CN1CCN(Cc2ccc(Cl)nc2)/C1=N/[N+](=O)[O-]` the “log(1/BC)” value was 3.81.
With `O=[N+]([O-])/N=c1\ccccn1Cc1cnc(Cl)s1` the “log(1/BC)” value was 5.75.
For `O=[N+]([O-])/N=c1\[nH]ccn1Cc1cnc(Cl)s1`, the “log(1/BC)” value was 4.61.
For `O=[N+]([O-])/N=C1\NCCCN1Cc1ccc(Cl)nc1`, the “log(1/BC)” value was 5.35.
In the case of `O=[N+]([O-])/C=C1\NCCN1Cc1cnc(Cl)s1`, the “log(1/BC)” value is reported as 5.73.
